These compounds were tested against 3CL Protease (Severe acute respiratory syndrome coronavirus 2, UniProt P0DTD1) (assay: 3CL Protease enzymatic activity assay (BPS Bioscience Assay Kit #78043-1, fluorescence)). Settings: Table A; 30 min preincubation, 40 μM substrate, 4 hours at room temperature; read-out: IC50, nM (3CL Protease enzymatic activity).
Type: biochemical, SARS-CoV-2
Procedure: For determination of 3CL Protease enzymatic activity was used Assay Kit of BPS Bioscience, San Diego, CA (Catalog #78043-1).
All samples and controls should be tested in duplicate. • 1) Just before use, dilute 0.5 M DTT 500 times into the 3CL Protease Assay Buffer to obtain a DTT concentration of 1 mM. For example, add 10 μl of 0.5 M DTT to 5 ml of assay buffer. Prepare enough DTT-containing buffer as required for the assay. Store the remaining assay buffer at −20° C. • 2) Thaw the 3CL Protease on ice. Briefly spin the tube containing the enzyme to recover the full content of the tube. Note: 3CL Protease enzyme is sensitive to freeze/thaw cycles. […] Note: The exact concentration and volume of enzyme is lot-specific and will be indicated on the tube. Calculate required dilution from the information in the tube. It may be desirable to dilute the enzyme serially to avoid using large amounts of protease assay buffer for the dilution. • 4) Add 30 μl of diluted 3CL Protease to the wells designated as “Positive Control,” “Inhibitor Control,” and “Test Inhibitor.” Add 30 μl of Assay Buffer (containing 1 mM DTT) to the “Blank” wells. • 5) Dilute the 50 μg GC376 in 200 μl of Assay Buffer to obtain a 500 μM solution. Add 10 μl of GC376 (500 μM) to the wells labeled “Inhibitor Control”. Aliquot and store the remaining solution at −80° C. • 6) Prepare the Test Inhibitor. The final concentration of DMSO in the assay should not exceed 1%. If the Test Inhibitor is dissolved in DMSO, make a 100-fold higher concentration of the compound than the highest desired concentration. Then make a 20-fold dilution in 1× Assay Buffer (containing DTT). At this step the compound concentration is 5-fold higher than the final concentration. If the test inhibitor is dissolved in water, make a 5-fold higher concentration of the test compound than the final desired concentration in the Assay buffer (containing DTT). Add 10 μl of Test Inhibitor to each well designated “Test Inhibitor”. • 7) Diluent Solution (no inhibitor): add 10 μl of assay buffer (if the test compound is water soluble and was diluted in assay buffer) or 10 μl of 5% DMSO diluted in assay buffer (if DMSO was used to dissolve the test inhibitor) to “Blank” and “Positive Control” wells.
• 8) Preincubate for 30 min at room temperature with slow shaking. • 9) Dilute the 25 μl of 3CL Protease substrate (10 mM) in 1.25 ml of the Assay Buffer containing DTT, to make a […] solution. The final concentration of the 3CL Protease substrate in a 50 μl reaction is 40 μM. • 10) Start the reaction by adding 10 μl of the substrate solution to all the wells. Seal the plate with the plate sealer and incubate for 4 hours at room temperature with slow shaking. • 11) Measure the fluorescence intensity in a microtiter plate-reader fluorometer (Tecan Spark Cyto) capable of excitation at a wavelength 360 nm and detection of emission at a wavelength 460 nm. The fluorescence intensity can also be measured kinetically. The “Blank” value is subtracted from all other values. • The % inhibition was then used to calculate the IC50 values.

Q: With `Cc1ccc2[nH]c(=O)c(C[C@@H](C#N)NC(=O)[C@@H]3C4[C@H](CN3C(=O)[C@@H](Nc3ccnc(C(F)(F)F)n3)C(C)(C)C)C4(C)C)cc2c1` (stereo in doubt) [Compound 161, (1R,2S,5S)—N—((S)-1-Cyano-2-(6-methyl-2-oxo-1,2-dihydroquinolin-3-yl)ethyl)-3-((S)-3,3-dimethyl-2-((2-(trifluoromethyl)pyrimidin-4-yl)amino)butanoyl)-6,6-dimethyl-3-azabicyclo[3.1.0]hexane-2-carboxamide] as the compound, how does the IC50 read?
A: The IC50 was at least 1000 nM.

Q: How did the IC50 turn out when `CC(C)(C)[C@H](NC(=O)C(F)(F)F)C(=O)N1C[C@H]2[C@@H]([C@H]1C(=O)N[C@@H](C#N)Cc1nc3ccccc3[nH]c1=O)C2(C)C` [Compound 186, (1R,2S,5S)—N-[(1R)-1-cyano-2-(3-oxo-4H-quinoxalin-2-yl)ethyl]-3-[(2S)-3,3-dimethyl-2-[(2,2,2-trifluoroacetyl)amino]butanoyl]-6,6-dimethyl-3-azabicyclo[3.1.0]hexane-2-carboxamide] was run?
A: Its IC50 is under 50 nM.

Q: How did the IC50 turn out when `Cc1ccc2[nH]c(=O)c(C[C@@H](C#N)NC(=O)[C@@H]3C4[C@H](CN3C(=O)[C@@H](NS(C)(=O)=O)C(C)(C)C)C4(C)C)cc2c1` (stereo in doubt) [Compound 147, (1R,2S,5S)—N-[(1S)-1-cyano-2-(6-methyl-2-oxo-1H-quinolin-3-yl)ethyl]-3-[(2S)-2-(methanesulfonamido)-3,3-dimethyl-butanoyl]-6,6-dimethyl-3-azabicyclo[3.1.0]hexane-2-carboxamide] was run?
A: Its IC50 is under 50 nM.

Q: `COc1cc2[nH]c(=O)c(C[C@@H](C#N)NC(=O)[C@@H]3[C@@H]4[C@H](CN3C(=O)[C@@H](NC(=O)C(F)(F)F)C(C)(C)C)C4(C)C)cc2cc1C` [Compound 175, (1R,2S,5S)—N-[(1S)-1-Cyano-2-(7-methoxy-6-methyl-2-oxo-1H-quinolin-3-yl)ethyl]-3-[(2S)-3,3-dimethyl-2-[(2,2,2-trifluoroacetyl)amino]butanoyl]-6,6-dimethyl-3-azabicyclo[3.1.0]hexane-2-carboxamide] was tested. Which IC50 did it give?
A: Its IC50 is 50 to 100 nM.

Q: For `Cc1ccc2[nH]c(=O)c(C[C@@H](C#N)NC(=O)[C@@H]3[C@@H]4[C@H](CN3C(=O)Cc3cc(C(F)(F)F)no3)C4(C)C)cc2c1` [Compound 193, (1R,2S,5S)—N—((S)-1-Cyano-2-(6-methyl-2-oxo-1,2-dihydroquinolin-3-yl)ethyl)-6,6-dimethyl-3-(2-(3-(trifluoromethyl)isoxazol-5-yl)acetyl)-3-azabicyclo[3.1.0]hexane-2-carboxamide], which IC50 is on record?
A: The IC50 was at least 1000 nM.

Q: For `Cc1ccc2[nH]c(=O)c(CC(C#N)NC(=O)[C@@H]3C4[C@H](CN3C(=O)[C@@H](NC(=O)OC(C)(C)C)C(C)(C)C)C4(C)C)cc2c1` (stereo in doubt) [Compound 171, tert-Butyl ((2S)-1-((1R,2S,5S)-2-((1-cyano-2-(6-methyl-2-oxo-1,2-dihydroquinolin-3-yl)ethyl)carbamoyl)-6,6-dimethyl-3-azabicyclo[3.1.0]hexan-3-yl)-3,3-dimethyl-1-oxobutan-2-yl)carbamate], which IC50 is on record?
A: Its IC50 is 250 to 500 nM.

Q: For `CC1(C)CCc2[nH]c(=O)c(CC(C#N)NC(=O)[C@@H]3C4[C@H](CN3C(=O)[C@@H](NS(C)(=O)=O)C(C)(C)C)C4(C)C)cc2C1` (stereo in doubt) [Compound 128, (1R,2S,5S)—N-(1-Cyano-2-(6,6-dimethyl-2-oxo-1,2,5,6,7,8-hexahydroquinolin-3-yl)ethyl)-3-((S)-3,3-dimethyl-2-(methylsulfonamido)butanoyl)-6,6-dimethyl-3-azabicyclo[3.1.0]hexane-2-carboxamide], which IC50 is on record?
A: The IC50 was 500 to 1000 nM.

Q: `COc1cc2cc(C[C@@H](C#N)NC(=O)[C@@H]3[C@@H]4[C@H](CN3C(=O)[C@@H](NC(=O)C(F)(F)F)C(C)(C)C)C4(C)C)c(=O)[nH]c2cc1C` [Compound 179] was tested. Which IC50 did it give?
A: The IC50 was 50 to 100 nM.

Q: How did the IC50 turn out when `Cc1ccc2[nH]c(=O)c(C[C@@H](C#N)NC(=O)[C@@H]3[C@@H]4[C@H](CN3C(=O)C(C)c3cc(C(F)(F)F)n[nH]3)C4(C)C)cc2c1` (stereo partly shown) [Compound 194] was run?
A: The IC50 was at least 1000 nM.

Same assay, conditions: Table B; comparison with known compound K; read-out: IC50, nM (3CL Protease enzymatic activity, comparative data)

Q: With `CC(C)(C)[C@H](NC(=O)C(F)(F)F)C(=O)N1C[C@H]2[C@@H]([C@H]1C(=O)N[C@H](C#N)C[C@@H]1CCCNC1=O)C2(C)C` [K, reference compound] as the compound, how does the IC50 read?
A: The IC50 was 1290 nM.

Reference: patent US20260015337A1 (Trawsfynydd Therapeutics, Inc., priority 2022, published 2026)
